In publication PMC12647017, “Discovery and optimization of a synthetic small protein domain targeting antibodies” (Frontiers in Bioengineering and Biotechnology, 2025) one finds ELISA signal, EC50 and Kd data, which are given here for 1 sequence.

For one experiment, the system named is human polyclonal IgG. In words: Screening ELISA of phage display clones (crude extracts) against human polyclonal IgG. The settings on record: crude extract of clones from 6th panning round, 1 µg/well human polyclonal IgG, blocked 3% (w/v) BSA in TBS, 50 µL extract 1 h at 37 °C, Anti-HA tag-HRP, ABTS, Abs405nm. It counts as binding. How it is done:
The biopanning of the previously developed WWp5_4 library ([Dias et al., 2025]) (Figures 1A,B) against human polyclonal IgG was performed for six rounds, after which an enrichment of ligands was observed (Supplementary Table S3). To assess the binding of each clone to the target, 192 clones were selected and expressed at small scale in 96-deep well blocks, following conditions previously optimised. After cell lysis, the supernatant containing the soluble fraction was used for ELISA assays. The results in Figure 1C illustrate the difference in the absorbance profile of the screened ligands. […] From these 26, only 21 presented high quality for reliable sequencing results. The sequence alignment and diversity of the different binders is represented in Table 1 and Figure 2A.
Small Scale Protein Expression and screening ELISA: From the output of the 6th round of panning, 94 isolated colonies were peaked into two sterile 96-well deep well 2mL round-bottom plates and grown with 200 µL of LB with ampicillin, 125 rpm, 37 °C, overnight (master plates). The following day, to one of the master plates was added glycerol to achieve a final concentration of 15% and was stored at -80 °C. Regarding the other master plate, 12 µL of this culture was added to another sterile 96-well deep well 2 mL round-bottom plate with 1.2 mL of LB with ampicillin and was grown at 37 °C, 125 rpm until OD600nm achieved 0.5-0.6. After this, protein expression was induced with 1 mM IPTG and continued incubation with the previous conditions. The following day, the cultures were sonicated for 30 minutes in ice-water bath and centrifuged for 10 minutes at 2500 x g. The supernatant was collected and transferred to a new microplate to be used in the screening for the ELISA (crude extract). For the ELISA, three microplates were tested: A) Sample binding plate; B) Negative control plate; C) Expression plate. On the sample binding plate, 1 µg/well of human polyclonal IgG was immobilized on the plate at 4 °C, overnight. On the following day, the target was removed, and the wells were washed once with TBS, then the plate was blocked with 300 µL 3% (w/v) BSA in TBS for 1 hour at 37 °C. After this, the wells were washed once with TBS, and were then incubated with 50 µL of crude extract (containing WW domain) for 1 hour at 37 °C. The plate was then washed 5 times with TBS-T, and then incubated with 100 µL of the Anti-HA tag-HRP conjugated antibody (diluted 1:1000) for 1 hour at 37 °C. The plate was then washed once with TBS-T and 4 times with TBS, and then incubated with the substrate ABTS for 1 hour at the dark at 37 °C. The results were then analysed in a microplate reader (TECAN) and the Abs405nm was then measured.
For the Negative control plate the protocol was the same as for the Binding microplate, except for the target immobilization. Instead of having IgG, only coating buffer was added. This plate allows to detect clones that unspecific bind to BSA present in the Blocking Buffer. For the Expression plate the protocol started at the step of incubation with the crude extract, and from there the steps were the same as the Binding microplate. This plate allows to detect clone’s basal expression level.

Another experiment concerns human IgG. In words: Microscale Thermophoresis (MST) with IgG-FITC. The class given is binding. As to conditions: E6, IgG-FITC 50 nM, E6 23.5 µM to 0.7 nM, 50 mM MOPS 0.05% (v/v) Tween-20 pH 7, 25 °C, n = 4. As for the experimental part:
For MST assays of E6, IgG was conjugated with fluoresceine isothiocyanate (FITC) using standard protocols. The conjugated IgG-FITC was used at a fixed concentration of 50nM and 16 serial dilutions of E6 protein (from 23.5 µM to 0.7 nM) were made in 50 mM MOPS 0.05% (v/v) Tween-20 pH 7.
For MST assays of E6_M2_T2, the target was hIgG-FITC (F9636, Sigma) at a constant concentration of 25 nM. For the E6_M2_T2 ligand, 16 samples were prepared in variable concentrations starting from 695 nM and using a serial dilution of 1:2 up to a minimum concentration of […] using PBS1x-0.05% (v/v) Tween-20 pH7.4.
Samples were transferred to a standard capillary (Monolith NT.115 Capillary, Nanotemper) with the following settings: medium MST-power, excitation power at 20%, with excitation in Nano-Blue, with thermostat at 25 °C. The signal of the samples was read in triplicates using a Monolith NT.115 (Nanotemper) and the signal was processed in the manufacturer software with FitModel: Kd and Hill. The binding parameters (KD and EC50) and were estimated automatically in the MST software.
A general note: MST reads how a fluorescent partner responds to local heating, with and without ligand.

The EC50 is the midpoint of the concentration-response curve. A word on the Kd: it is the equilibrium constant for the complex coming apart. As to “SMGLPPGWDEYKT RRFKL GKTYYYNH HILS KTSTWTDPRMSS [Clone E6]”, in the experiment on human polyclonal IgG, the ELISA signal result is “High (high binders (Abs>0.4))”. For the same sequence, in the experiment with human IgG, the EC50 was 146 nM. Moreover, at human IgG (read-out: dissociation constant, KD), the Kd stood at 133 ± 48 nM.
